Results: US20220305012A1, “L[…] TREATING SLEEP ISSUES” (EISAI R&D MANAGEMENT CO., LTD., priority 2019, published 2022)

What was measured:
[1] = test system: Subjects Having Insomnia Disorder; assay: Example 2: sleep efficiency (SE), polysomnography; type: in vivo, human
Description: (§1) In some embodiments, a sleep parameter is determined objectively using polysomnography. Polysomnography is the monitoring of multiple electrophysiological parameters during sleep and generally includes measurement of EEG activity, electro-oculographic activity and electromyographic activity, as well as other measurements.
SE—sleep efficiency: proportion of time spent asleep per time in bed, calculated as TST/interval from lights off until lights on.
(§2) The treatment period lasted for 31 days. Subjects were randomized in a double-blind manner and received placebo, a tablet containing 5 mg of lemborexant, a tablet containing 10 mg of lemborexant, or a tablet containing 6.25 mg of zolpidem ER.
(§3) Within 5 minutes of the subject's mean habitual bedtime, study drug was administered and an overnight polysomnogram recording was initiated. At completion of the recording the following morning (Day 2), postural stability and cognitive performance were assessed. On the Day 2 evening, subjects returned to the clinic and a blood sample was collected before administering study drug, and then study drug was administered within 5 minutes of the subject's mean habitual bedtime. Again, a polysomnogram recording was initiated. The next morning (Day 3), postural stability and cognitive performance were assessed. A blood sample was also collected.
(§4) On Day 29, subjects returned to the clinic. Study drug was administered within 5 minutes of the subject's mean habitual bedtime and a polysomnogram recording was conducted. On the following morning (Day 30), postural stability and cognitive performance were assessed. After 1.5 hours of waketime, subjects rated their morning sleepiness level.
(§5) On the evening of Day 30, subjects returned to the clinic. A pre-dose blood sample was collected and study drug was again administered within 5 minutes of the subject's mean habitual bedtime. A polysomnogram recording was initiated. The following morning (Day 31), postural stability and cognitive performance were assessed and a blood sample was obtained. The ISI, FSS, EQ-5D-3L and PGI-Insomnia were administered. Blood and urine samples were collected for routine safety assessment. An electrocardiogram was performed, and vital signs and weight were assessed. The eC-SSRS was then administered to the subject. At 1.5 hours after waketime, subjects rated their morning sleepiness level.
One key secondary endpoint was to determine the change from baseline for mean sleep efficiency on Days 29 and 30 after administration of 5 mg or 10 mg of lemborexant, compared to placebo.

[2] = test system: Subjects Having Insomnia Disorder; assay: Example 2: total sleep time (TST), polysomnography; type: in vivo, human
Description: as §1
TST—total sleep time: minutes of sleep from sleep onset until terminal awakening.
as §2, §3, §4, §5

[3] = test system: Subjects Having Insomnia Disorder; assay: Example 2: subjective wake after sleep onset (sWASO), sleep diary; type: in vivo, human
Description: As used herein, the term “subjective wake after sleep onset”, abbreviated as “sWASO”, means the sum of estimated minutes of wake during the night after initial sleep onset until the time the subject stopped trying to sleep for the night, operationalized as the time the subject got out of bed for the day. In some embodiments, sWASO is derived from data entered in a subject's Sleep Diary. As used herein, an “improvement of sWASO” means a reduction in sWASO.
In some embodiments, sleep diaries were used to assess sleep parameters reported by subjects (i.e., subjective assessments) including subjective sleep onset latency (sSOL), subjective sleep efficiency (sSE), subjective WASO (sWASO), and subjective total sleep time (sTST). Subjects were instructed to complete the Sleep Diary developed based on the consensus Sleep Diary as described in Carney et al., “The consensus sleep diary: standardizing prospective sleep self-monitoring,” Sleep 2012; 35(2):287-302. In some embodiments, the Sleep Diary was used to assess the subject's global perception of quality of sleep on the previous night with the following question: “How would you rate the quality of your sleep last night?” Subjects rated the quality of their sleep on a scale from 1 to 9, with 1 being extremely poor and 9 being extremely good. In some embodiments, the Sleep Diary was used to assess subjective ratings of morning sleepiness with the following question: “How alert/sleepy do you feel this morning?” Subjects rated their sleepiness/alertness level on a Likert scale from 1 to 9, with 1 being extremely sleepy and 9 being extremely alert.
sWASO—subjective wake after sleep onset: sum of estimated minutes of wake during the night after initial sleep onset until the time the subject stopped trying to sleep for the night, operationalized as the time the subject got out of bed for the day.
as §2
Once home, the subject ingested study drug each night prior to bedtime and completed their sleep diary within 1 hour of waketime.

[4] = test system: Subjects Having Insomnia Disorder; assay: Example 2: auditory awakening threshold
[5] = First 7 Nights of Treatment, Lemborexant 5 mg
[6] = First 7 Nights of Treatment, Lemborexant 10 mg
[7] = Last 7 Nights of Treatment, Lemborexant 5 mg
[8] = Last 7 Nights of Treatment, Lemborexant 10 mg

SMILES: Cc1ncc(OC[C@@]2(c3cccc(F)c3)C[C@H]2C(=O)Nc2ccc(F)cn2)c(C)n1 [Lemborexant, (1R,2S)-2-(((2,4-dimethylpyrimidin-5-yl)oxy)methyl)-2-(3-fluorophenyl)-N-(5-fluoropyridin-2-yl)cyclopropanecarboxamide]
- Sleep Efficiency, Change from Study Baseline, Mean (SD) ([1]; Days 29/30, Lemborexant 10 mg): 14.09 (10.514)
- Sleep Efficiency, Change from Study Baseline, Median ([1]; Days 29/30, Lemborexant 10 mg): 13.57
- Sleep Efficiency, Mean (SD) ([1]; Days 29/30, Lemborexant 10 mg): 81.99 (8.801)
- Sleep Efficiency, Median ([1]; Days 29/30, Lemborexant 10 mg): 83.52
- mean sleep efficiency ([1]; all lemborexant treatment groups, relative to baseline, placebo and zolpidem treatment groups (Table 14)): increased
- Total Sleep Time, Change from Study Baseline, Mean (SD) ([2]; Days 1/2, Lemborexant 5 mg): 65.22 (46.695)
- Total Sleep Time, Change from Study Baseline, Median ([2]; Days 1/2, Lemborexant 5 mg): 59.50
- Total Sleep Time, Mean (SD) ([2]; Days 1/2, Lemborexant 5 mg): 393.22 (40.346)
- Total Sleep Time, Median ([2]; Days 1/2, Lemborexant 5 mg): 400.63
- Total Sleep Time, Change from Study Baseline, Mean (SD) ([2]; Days 1/2, Lemborexant 10 mg): 79.58 (47.350)
- Total Sleep Time, Change from Study Baseline, Median ([2]; Days 1/2, Lemborexant 10 mg): 74.25
- Total Sleep Time, Mean (SD) ([2]; Days 1/2, Lemborexant 10 mg): 404.65 (36.593)
- Total Sleep Time, Median ([2]; Days 1/2, Lemborexant 10 mg): 411.50
- Total Sleep Time, Change from Study Baseline, LSM treatment difference: Lemborexant-Zolpidem ([2]; Days 29/30, Lemborexant 5 mg): 19.41 (3.457)
- Total Sleep Time, Change from Study Baseline, Mean (SD) ([2]; Days 29/30, Lemborexant 5 mg): 61.99 (46.817)
- Total Sleep Time, Change from Study Baseline, Median ([2]; Days 29/30, Lemborexant 5 mg): 56.50
- Total Sleep Time, Mean (SD) ([2]; Days 29/30, Lemborexant 5 mg): 389.97 (42.437)
- Total Sleep Time, Median ([2]; Days 29/30, Lemborexant 5 mg): 399.63
- Total Sleep Time, Change from Study Baseline, LSM treatment difference: Lemborexant-Zolpidem ([2]; Days 29/30, Lemborexant 10 mg): 24.10 (3.456)
- Total Sleep Time, Change from Study Baseline, Mean (SD) ([2]; Days 29/30, Lemborexant 10 mg): 67.86 (52.117)
- Total Sleep Time, Change from Study Baseline, Median ([2]; Days 29/30, Lemborexant 10 mg): 65.13
- Total Sleep Time, Mean (SD) ([2]; Days 29/30, Lemborexant 10 mg): 393.16 (42.827)
- Total Sleep Time, Median ([2]; Days 29/30, Lemborexant 10 mg): 400.88
- mean total sleep time ([2]; all lemborexant treatment groups, relative to baseline, placebo and zolpidem treatment groups (Table 17)): increased
- mean subjective wake after sleep onset ([3]; 10 mg, relative to baseline, placebo and zolpidem treatment groups (Table 20)): reduced
- Subjective Wake After Sleep Onset, Change from Study Baseline, Mean (SD) [3, 5]: −39.33 (55.022)
- Subjective Wake After Sleep Onset, Mean (SD) [3, 5]: 127.37 (78.303)
- Subjective Wake After Sleep Onset, Model-adjusted change from baseline [3, 5]: −39.97
- Subjective Wake After Sleep Onset, Change from Study Baseline, Mean (SD) [3, 6]: −55.06 (66.696)
- Subjective Wake After Sleep Onset, Mean (SD) [3, 6]: 119.78 (74.825)
- Subjective Wake After Sleep Onset, Model-adjusted change from baseline [3, 6]: −53.90
- Subjective Wake After Sleep Onset, Change from Study Baseline, Mean (SD) [3, 7]: −44.51 (58.090)
- Subjective Wake After Sleep Onset, Mean (SD) [3, 7]: 119.30 (81.645)
- Subjective Wake After Sleep Onset, Model-adjusted change from baseline [3, 7]: −47.55
- Subjective Wake After Sleep Onset, Change from Study Baseline, Mean (SD) [3, 8]: −57.96 (72.791)
- Subjective Wake After Sleep Onset, Mean (SD) [3, 8]: 117.08 (83.753)
- Subjective Wake After Sleep Onset, Model-adjusted change from baseline [3, 8]: −56.64
- Auditory Awakening Threshold, LSM - Difference vs. Placebo ([4]; Lemborexant 5 mg): 1.7
- Auditory Awakening Threshold, Mean (SD) ([4]; Lemborexant 5 mg): 51.8
- Auditory Awakening Threshold, Median ([4]; Lemborexant 5 mg): 50.0
- Auditory Awakening Threshold, LSM - Difference vs. Placebo ([4]; Lemborexant 10 mg): −0.9
- Auditory Awakening Threshold, Mean (SD) ([4]; Lemborexant 10 mg): 51.7
- Auditory Awakening Threshold, Median ([4]; Lemborexant 10 mg): 52.5
- ability to be awakened by an external stimulus (auditory awakening threshold) ([4]; Table 27): did not interfere with a subject's ability to be awakened by an external stimulus
